Laboratory results taken from the NIST ThermoML archive (doi:10.1016/j.jct.2006.01.010).

How the values were obtained:
[1] = refractive index (Na D-line) (dimensionless); conditions: 298.15 K; 101.33 kPa; Liquid; Standard Abbe refractometry
[2] = Liquid, Ebulliometric method (Recirculating still)

ClC(Cl)C(Cl)Cl [1,1,2,2-tetrachloroethane]
Conditions | refractive index
[1] | 1.492

[2]
Conditions | vapor or sublimation pressure [kPa]
343.15 K | 7.24
353.15 K | 11.23
363.15 K | 16.65
373.15 K | 24.17
379.75 K | 30.48
389.55 K | 42.33
396.35 K | 52.48
401.55 K | 61.35
405.55 K | 69.05
409.55 K | 77.59
413.45 K | 86.66
416.45 K | 94.27
418.95 K | 101.08

O=C1CCCCC1 [cyclohexanone]
Conditions | refractive index
[1] | 1.4481

[2]
Conditions | vapor or sublimation pressure [kPa]
343.15 K | 5.57
353.15 K | 8.6
363.15 K | 13.07
373.15 K | 18.9
385.45 K | 29.1
394.05 K | 38.41
401.35 K | 48.2
407.35 K | 57.43
414.75 K | 70.59
419.8 K | 81.35
424.05 K | 91.55
427.8 K | 101.1

O=C1CCCC1 [cyclopentanone]
Conditions | refractive index
[1] | 1.4349

[2]
Conditions | vapor or sublimation pressure [kPa]
323.15 K | 5.31
333.15 K | 8.49
343.15 K | 13.03
353.15 K | 19.61
358.85 K | 24.48
363.15 K | 28.61
363.45 K | 29.04
372.25 K | 39.48
378.35 K | 48.32
384.15 K | 57.77
388.85 K | 67.18
393.25 K | 76.67
397.65 K | 87.37
399.75 K | 92.98
403.05 K | 101.76
